Here are results for two sequences from patent US20140336067A1, “METHOD FOR FINDING BIOACTIVE PEPTIDES” (Nano Intelligent Biomedical Engineering Corporation Co. Ltd., priority 2011, published 2014).

Assay [1] relates to hMSCs (human mesenchymal stem cells). Briefly: In vitro cell differentiation potential by calcium production (Alizarin red S staining). The format is cell-based. Particulars: hMSCs treated with 10 mM peptide, hard tissue forming medium, FIG. 6. The protocol:
To measure the cell differentiation ability of the heparin binding peptide by calcium production, 1×10^3 hMSCs (human mesenchymal stem cells) were dispensed into each well of a well-plate, and then treated with 10 mM of each of the peptides of SEQ ID NOS: 2 and 3 synthesized in Example 2. Then, the cells were cultured in a hard tissue forming medium (MSCBM medium containing 15% FBS (fetal bovine serum), […] L-ascorbic acid, 10^−7 M dexamethasone, 1% antibiotic-antimycotic solution, and 10 mM beta-glycerol phosphate) for […]. After completion of the culture, the medium was removed, and the cells were washed twice with phosphate buffered saline (PBS). Then, the cells were fixed with 90% ethanol at 4° C. for 15 minutes and washed twice with distilled water, followed by staining with 2% Alizarin red S solution (pH 4.2; Alizarin red S powder, Junsei, JAPAN) for 5 minutes.

The nature of assay [2]: Binding of synthesized peptide to heparin (solid phase method, HRP-conjugated heparin binding protein, absorbance at 405 nm). Particulars: peptide coated on 96-well plates, sodium heparin 10 μg/100 μL, FIG. 5. The method, then: The synthesized peptide was dissolved in PBS at various concentrations and coated on the surface of 96-well Maxisorp microtiter plates (Nunc). Then, it was blocked with 1% BSA at 37° C. for 1 hour, and sodium heparin (10 μg/100 μL) was added to the peptide and reacted with the peptide at room temperature for 4 hours. The plate was washed three times with PBS, and then horseradish peroxidase (HRP)-conjugated heparin binding protein (Lifespan Technologies, Salt Lake City, Utah) diluted in PBS at a concentration of 1 μg/mL was reacted with the peptide at room temperature for 1 hour. To measure the binding of HRP-conjugated heparin binding protein to the peptide, ABTS was added to each well to develop color, and after 5 minutes, 1% SDS was added to each well to stop the reaction. Then, the absorbance of each well at 405 nm was measured. The absorbance of the peptide having the HRP-conjugated heparin binding protein bound thereto was calculated relative to 100% for the well surface coated with 1% BSA.
Binding %=(absorbance of well coated with heparin binding peptide/absorbance of well coated with BSA)×100

Take “SLYVDFSDVGW (the sequence is synthesized) [SEQ ID NO: 3, BMP-4 peptide selected from chymotrypsin cleavage sites]”: the production of calcium entry in assay [1] is reported as “lowest”.

“SQRARKKNKNCRRH (the sequence is synthesized) [SEQ ID NO: 2]”: the “ability to bind to heparin” value in assay [2] is recorded as “high ability to bind to heparin”. In addition, the production of calcium entry in assay [1] is listed as “highest”.
